System: human Peripheral Blood Mononuclear Cell (PMBC)
Assay: PBMC assay: cytokine (IFN-α) stimulation at 24 hours
Assay type: cell-based
Conditions: lowest concentration stimulating IFN-α production at least 3-fold over background, Luminex, read-out: IFN MEC
Experimental: Assays were conducted to determine cytokine stimulation at 24 hours from human Peripheral Blood Mononuclear Cell (PMBC) using the compounds of the present invention. The assays were run in duplicate, with 8-point, half-log dilution curves. The compounds of the present invention were diluted from 10 mM DMSO solution. Cell supernatants are assayed directly for IFNα and 1:10 dilution for TNFα. The assays were performed in a similar fashion as described in Bioorg. […] Specifically, cryo-preserved PBMCs were thawed and seeded 96 well plates with 750,000 cells/well in 190 μL/well cell media. The PBMCs were then incubated for 1 hour at 37° C. at 5% CO2. Then, the compounds of the present invention were added in 10 μL cell media at 8 point, half-log dilution titration. The plates were incubated at 37° C. and 5% CO2 for 24 hours and then spinned at 1200 rpm for 10 min, which was followed by collecting supernatant and storing the same at −80° C. Cytokine secretion was assayed with Luminex and Upstate multi-plex kits, using a Luminex analysis instrument. The IFN-α MEC value for a compound was the lowest concentration at which the compound stimulated IFN-α production at least 3-fold over the background as determined using the assay method above.

SMILES | minimal effective concentration
CCCC(C)Oc1nc(N)c2c(n1)N(Cc1cccc(CN3CCCC3)c1)CC(=O)N2 (stereo not drawn) [Example 24] | ≤ 0.03 µM
COCCOc1nc(N)c2c(n1)N(Cc1ccc(-c3ccc(CN4CCCC4)cc3)cc1)CC(=O)N2 [Example 98] | ≤ 0.03 µM
CCCN(C)C(=O)c1nc(N)c2c(n1)N(Cc1ccc(CN3CCCC3)cc1)CC(=O)N2 [Example 85] | > 0.03 µM
Cc1ccc(CN2CC(=O)Nc3c(N)nc(OCC4CCOC4)nc32)cn1 (stereo not drawn) [Example 115] | > 0.03 µM
CCCCCOc1nc(N)c2c(n1)N(Cc1cccc(CN3CCCC3)c1)CC(=O)N2 [Example 12] | > 0.03 µM
Nc1nc(OCC2CCOC2)nc2c1NC(=O)CN2Cc1cccc(CN2CCCC2)c1 (stereo not drawn) [Example 17] | > 0.03 µM
CCCCOc1nc(N)c2c(n1)N(Cc1cccc(CN3CCC(C(=O)O)CC3)c1)CC(=O)N2 [Example 75] | > 0.03 µM
CCCCOc1nc(N)c2c(n1)N(Cc1cccc(CN3CCN(C)CC3)c1)CC(=O)N2 [Example 79] | ≤ 0.03 µM
CS(=O)(=O)CCOc1nc(N)c2c(n1)N(Cc1cccc(CN3CCCC3)c1)CC(=O)N2 [Example 20] | > 0.03 µM
CCC[C@H](C)Oc1nc(N)c2c(n1)N(Cc1cccc(CN3CCCC3)c1)CC(=O)N2 [Example 59] | ≤ 0.03 µM
CCCCOc1nc(N)c2[nH]c(=O)c(=O)n(Cc3ccc(-c4cccc(CN5CCCC5)c4)cc3)c2n1 [Example 97] | ≤ 0.03 µM
Nc1nc(OCc2ccccc2)nc2c1NC(=O)CN2Cc1cccc(CN2CCCC2)c1 [Example 15] | > 0.03 µM
CCCCOc1nc(N)c2c(n1)N(Cc1ccc(-c3cccc(CN4CCCC4)c3)cc1)CC(=O)N2 [Example 96] | ≤ 0.03 µM
Nc1nc(N[C@@H]2CCOC2)nc2c1NC(=O)CN2Cc1cccc(CN2CCCC2)c1 [Example 46] | > 0.03 µM
CCCCOc1nc(N)c2[nH]c(=O)c(=O)n(Cc3ccc(-c4ccc(CN5CCCC5)cc4)cc3)c2n1 [Example 101] | > 0.03 µM
CCCCOc1nc(N)c2c(n1)N(Cc1cccc(CN3CCC(C(=O)OC)CC3)c1)CC(=O)N2 [Example 54] | > 0.03 µM
CCCN(C)C(=O)c1nc(N)c2[nH]c(=O)c(=O)n(Cc3cccc(CN4CCCC4)c3)c2n1 [Example 92] | > 0.03 µM
CCCCCc1nc(N)c2c(n1)N(Cc1cccc(CN3CCCC3)c1)CC(=O)N2 [Example 53] | > 0.03 µM
Nc1nc(NCC2CC2)nc2c1NC(=O)CN2Cc1cccc(CN2CCCC2)c1 [Example 39] | ≤ 0.03 µM
CC(C)CCOc1nc(N)c2c(n1)N(Cc1cccc(CN3CCCC3)c1)CC(=O)N2 [Example 11] | > 0.03 µM
CCCCOc1nc(N)c2c(n1)N(Cc1ccc3c(c1)CCN(CC)C3)CC(=O)N2 [Example 104] | ≤ 0.03 µM
CCCCOc1nc(N)c2c(n1)N(Cc1cccc(CN3CCCC3)c1)CC(=O)N2 [Example 49, 4-amino-2-n-butoxy-8-[3′-(pyrrolidin-1″-ylmethyl)-benzyl]-5,6,7,8-tetrahydropteridin-6-one] | ≤ 0.03 µM
COCCNc1nc(N)c2c(n1)N(Cc1cccc(CN3CCCC3)c1)CC(=O)N2 [Example 33] | > 0.03 µM
CCCCOc1nc(N)c2c(n1)N(Cc1ccc3c(c1)CCN(C(C)C)C3)CC(=O)N2 [Example 105] | ≤ 0.03 µM
CCCCNc1nc(N)c2c(n1)N(Cc1cccc(CN3CCCC3)c1)CC(=O)N2 [Example 32] | > 0.03 µM
CCCCOc1nc(N)c2c(n1)N(Cc1cccc(CN3CCCC3)c1)C(O)C(=O)N2 (stereo not drawn) [Example 82] | ≤ 0.03 µM

SMILES | minimal effective concentration
CCCCOc1nc(N)c2c(n1)N(Cc1ccc(C(F)(F)F)nc1)CC(=O)N2 [Example 117] | > 0.03 µM
CCC[C@H](C)Oc1nc(N)c2c(n1)N(Cc1ccc(C)nc1)CC(=O)N2 [Example 116] | > 0.03 µM
Nc1nc(O[C@@H]2C[C@@H]3C[C@@H]3C2)nc2c1NC(=O)CN2Cc1cccc(CN2CCCC2)c1 [Example 68] | ≤ 0.03 µM
Nc1nc(OC2CCCC2)nc2c1NC(=O)CN2Cc1cccc(CN2CCCC2)c1 [Example 21] | ≤ 0.03 µM
CC1(COc2nc(N)c3c(n2)N(Cc2cccc(CN4CCCC4)c2)CC(=O)N3)CC1 [Example 6, 4-amino-2-{(1′″-methylcycloprop-1′″-yl)methoxy}-8-[3′-(pyrrolidin-1″-ylmethyl)-benzyl]-5,6,7,8-tetrahydropteridin-6-one] | > 0.03 µM
CCCCOc1nc(N)c2c(n1)N(CCC1CCN(CC3CC3)CC1)CC(=O)N2 [Example 113] | ≤ 0.03 µM
CCCCNc1nc(N)c2c(n1)N(Cc1ccnc(N3CCOCC3)c1)CC(=O)N2 [Example 78] | > 0.03 µM
CCCCOc1nc(N)c2c(n1)N(Cc1ccccc1CN1CCCC1)CC(=O)N2 [Example 57] | > 0.03 µM
CCOc1nc(N)c2c(n1)N(Cc1cccc(CN3CCCC3)c1)CC(=O)N2 [Example 62] | > 0.03 µM
COC[C@H](C)Nc1nc(N)c2c(n1)N(Cc1cccc(CN3CCCC3)c1)CC(=O)N2 [Example 37] | ≤ 0.03 µM
CCCCOc1nc(N)c2c(n1)N(Cc1ccc3c(c1)CN(CC)CC3)CC(=O)N2 [Example 52] | ≤ 0.03 µM
CCC[C@@H](C)Oc1nc(N)c2c(n1)N(Cc1cccc(CN3CCCC3)c1)CC(=O)N2 [Example 58] | > 0.03 µM
Nc1nc(N2CCC2)nc2c1NC(=O)CN2Cc1cccc(CN2CCCC2)c1 [Example 42] | > 0.03 µM
CCC[C@@H](C)Oc1nc(N)c2c(n1)N(Cc1ccc(CN3CCCC3)cc1)CC(=O)N2 [Example 60] | > 0.03 µM
COCCOc1nc(N)c2[nH]c(=O)c(=O)n(Cc3ccc(-c4ccc(CN5CCCC5)cc4)cc3)c2n1 [Example 99] | ≤ 0.03 µM
CCCN(C)C(=O)c1nc(N)c2c(n1)N(Cc1cccc(CN3CCCC3)c1)CC(=O)N2 [Example 81] | > 0.03 µM
CS(=O)(=O)CCNc1nc(N)c2c(n1)N(Cc1cccc(CN3CCCC3)c1)CC(=O)N2 [Example 44] | > 0.03 µM
Nc1nc(OCc2cccnc2)nc2c1NC(=O)CN2Cc1cccc(CN2CCCC2)c1 [Example 16] | > 0.03 µM
CCCC(C)Oc1nc(N)c2c(n1)N(Cc1ccc(C)nc1)CC(=O)N2 (stereo not drawn) [Example 109] | > 0.03 µM
CCCCOc1nc(N)c2c(n1)N(Cc1cccc(CN3CCCC3)c1)CCC(=O)N2 [Example 50] | > 0.03 µM
Nc1nc(OCCN2CCCC2=O)nc2c1NC(=O)CN2Cc1cccc(CN2CCCC2)c1 [Example 22] | > 0.03 µM
Nc1nc(N2CCCC2)nc2c1NC(=O)CN2Cc1cccc(CN2CCCC2)c1 [Example 43] | ≤ 0.03 µM
CCCCOc1nc(N)c2c(n1)N(Cc1ccc(-c3ccc(CN4CCCC4)cc3)cc1)CC(=O)N2 [Example 100] | ≤ 0.03 µM
Nc1nc(NC2CCC2)nc2c1NC(=O)CN2Cc1cccc(CN2CCCC2)c1 [Example 40] | ≤ 0.03 µM
Nc1nc(OCC2CCCC2)nc2c1NC(=O)CN2Cc1cccc(CN2CCCC2)c1 [Example 8, 4-amino-2-{(cyclopentyl)methoxy}-8-[3′-(pyrrolidin-1″-ylmethyl)-benzyl]-5,6,7,8-tetrahydropteridin-6-one] | > 0.03 µM

Reference: US11110091B2, “Modulators of toll-like receptors” (Gilead Sciences, Inc., priority 2008, dated 2021)
